In a compilation of properties of binary mixtures (doi:10.1021/je0498457):

Assay: excess molar enthalpy (molar enthalpy of mixing); xn = mol fraction of the nth substance listed
Conditions: 100 kPa

C1CCOCC1 + CCCCO
excess molar enthalpy [kcal/mol]
Conditions | 283.15 K | 298.15 K | 313.15 K
x1 = 0.04 | 0.0282 | 0.0299 | 0.0284
x1 = 0.09 | 0.0574 | 0.0614 | 0.0617
x1 = 0.188 | 0.108 | – | 0.124
x1 = 0.288 | 0.15 | 0.165 | 0.176
x1 = 0.39 | 0.182 | 0.201 | 0.215
x1 = 0.49 | 0.199 | – | 0.234
x1 = 0.593 | 0.204 | 0.223 | –
x1 = 0.694 | 0.192 | – | 0.218
x1 = 0.796 | 0.159 | 0.167 | 0.171
x1 = 0.901 | 0.0963 | 0.0985 | 0.0975
x1 = 0.952 | 0.0528 | 0.0531 | 0.0516
